In patent publication US8735398B2 (Bristol-Myers Squibb Company, priority 2009, dated 2014):

Each compound was assayed on HCV 1b genotype (assay: HCV replicon assay (HCV-neo replicon cells, wild-type)). Conditions: HCV 1b genotype replicon; class symbol; read-out: EC50 Range against HCV 1b.
Format: cell-based, Hepatitis C virus
In short: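 Inhibition was tested in replicon-bearing cells, both wild-type HCV-neo and lines with NS5A resistance substitutions, using the O'Boyle et al. 2005 replicon method or luciferase-reporter formats.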

| Compound | EC50 |
| --- | --- |
| O=C(Nc1ccc(-c2cnc(-c3ccc(NC(=O)[C@@H]4C[C@@H]5C[C@@H]5N4C(=O)[C@H](O)c4ccccc4)cc3)o2)cc1)[C@@H]1C[C@@H]2C[C@@H]2N1C(=O)[C@H](O)c1ccccc1 [CB-6, (1S,3S,5S,1′S,3′S,5′S)-N,N′-(1,3-oxazole-2,5-diyldi-4,1-phenylene)bis(2-((2R)-2-hydroxy-2-phenylacetyl)-2-azabicyclo[3.1.0]hexane-3-carboxamide)] | < 4.57 nM |
| CC(O)(C(=O)N1C(C(=O)Nc2ccc(-c3cnc(-c4ccc(NC(=O)C5CC6CC6N5C(=O)C(C)(O)c5ccccc5)cc4)o3)cc2)CC2CC21)c1ccccc1 [CB-10, (1S,3S,5S,1′S,3′S,5′S)-N,N′-(1,3-oxazole-2,5-diyldi-4,1-phenylene)bis(2-((2R)-2-hydroxy-2-phenylpropanoyl)-2-azabicyclo[3.1.0]hexane-3-carboxamide)] | < 4.57 nM |

Same assay, conditions: HCV 1b genotype replicon; class symbols; read-out: EC50 Range against HCV 1b

| Compound | EC50 |
| --- | --- |
| CN(C)[C@H](C(=O)N1CCC[C@H]1C(=O)Nc1ccc(-c2cnc(-c3ccc(NC(=O)[C@@H]4CCCN4C(=O)[C@H]([C@@H](O)c4ccsc4)N(C)C)cc3)o2)cc1)[C@@H](O)c1ccsc1 [JR-15, (S,S,2S)-N,N′-(4,4′-(oxazole-2,5-diyl)bis(4,1-phenylene))bis(1-((2S,3S)-2-(dimethylamino)-3-hydroxy-3-(thiophen-3-yl)propanoyl)pyrrolidine-2-carboxamide)] | 4.57 to 99 nM |

Same assay, conditions: Hepatitis C virus, HCV 1b genotype replicon; class symbol; read-out: EC50 Range against HCV 1b

| Compound | EC50 |
| --- | --- |
| C[C@](O)(C(=O)N1CCC[C@H]1C(=O)Nc1ccc(-c2ccc(-c3ccc(NC(=O)[C@@H]4CCCN4C(=O)[C@](C)(O)c4ccccc4)cc3)o2)cc1)c1ccccc1 [JG-58, (2S,2′S)-N,N′-(2,5-furandiyldi-4,1-phenylene)bis(1-((2R)-2-hydroxy-2-phenylpropanoyl)-2-pyrrolidinecarboxamide)] | 4.57 to 99 nM |
| O=C(Nc1ccc(-c2nnc(-c3ccc(NC(=O)[C@@H]4CCCN4C(=O)[C@@H]4CCCO4)cc3)o2)cc1)[C@@H]1CCCN1C(=O)[C@@H]1CCCO1 [RK-14, (2S,2′S)-N,N′-(1,3,4-oxadiazole-2,5-diyldi-4,1-phenylene)bis(1-((2S)-tetrahydro-2-furanylcarbonyl)-2-pyrrolidinecarboxamide)] | 100 to 999 nM |
| Cn1nc(-c2ccc(NC(=O)[C@@H]3CCCN3C(=O)OCc3ccccc3)cc2)cc1-c1ccc(NC(=O)[C@@H]2CCCN2C(=O)OCc2ccccc2)cc1 [FY-3, dibenzyl (2S,2′S)-2,2′-((1-methyl-1H-pyrazole-3,5-diyl)bis(4,1-phenylenecarbamoyl))di(1-pyrrolidinecarboxylate)] | 100 to 999 nM |
| O=C(Nc1ccc(-c2cc(-c3ccc(NC(=O)[C@@H]4CCCN4C(=O)[C@H](O)c4ccccc4Cl)cc3)[nH]n2)cc1)[C@@H]1CCCN1C(=O)[C@H](O)c1ccccc1Cl [JG-36, (2S,2′S)-N,N′-(1H-pyrazole-3,5-diyldi-4,1-phenylene)bis(1-((2R)-2-(2-chlorophenyl)-2-hydroxyacetyl)-2-pyrrolidinecarboxamide)] | < 4.57 nM |
| COc1cccc2c(C(=O)N3CCC[C@H]3C(=O)Nc3ccc(-c4ccc(-c5ccc(NC(=O)[C@@H]6CCCN6C(=O)[C@H](O)c6ccccc6)cc5)o4)cc3)nc(Cl)cc12 [JG-64, (2S)-1-((3-chloro-5-methoxy-1-isoquinolinyl)carbonyl)-N-(4-(5-(4-((((2S)-1-((2R)-2-hydroxy-2-phenylacetyl)-2-pyrrolidinyl)carbonyl)amino)phenyl)-2-furyl)phenyl)-2-pyrrolidinecarboxamide] | 4.57 to 99 nM |
| O=C(Nc1ccc(-c2cnc(-c3ccc(NC(=O)[C@@H]4C[C@@H](O)CN4C(=O)Cc4ccccc4)cc3)o2)cc1)[C@@H]1C[C@@H](O)CN1C(=O)Cc1ccccc1 [JG-2, (2S,4R,2′S,4′R)-N,N′-(1,3-oxazole-2,5-diyldi-4,1-phenylene)bis(4-hydroxy-1-(phenylacetyl)-2-pyrrolidinecarboxamide)] | < 4.57 nM |
| O=C(Nc1ccc(-c2ncc(-c3ccc(NC(=O)[C@@H]4CCCN4C(=O)C4CC4)cc3)o2)cc1)C1CCCN1C(=O)C1CC1 (stereo in doubt) [JG-7, (2S,2′S)-N,N′-(1,3-oxazole-2,5-diyldi-4,1-phenylene)bis(1-(cyclopropylcarbonyl)-2-pyrrolidinecarboxamide)] | 100 to 999 nM |
| O=C(Nc1ccc(-c2nnc(-c3ccc(NC(=O)[C@@H]4CCCN4C(=O)c4ccc5ccccc5n4)cc3)o2)cc1)[C@@H]1CCCN1C(=O)c1ccc2ccccc2n1 [RK-10, (2S,2′S)-N,N′-(1,3,4-oxadiazole-2,5-diyldi-4,1-phenylene)bis(1-(2-quinolinylcarbonyl)-2-pyrrolidinecarboxamide)] | 1000 to 10000 nM |
| COc1cccc2c1C=C(Cl)N(c1ccc(-c3ncc(-c4ccc(NC(=O)[C@@H]5C[C@@H]6C[C@@H]6N5C(=O)c5nc(Cl)cc6c(OC)cccc56)cc4)o3)cc1)C2C(=O)N1[C@H](C(N)=O)C[C@@H]2C[C@@H]21 (stereo partly drawn) [CB-4, (1S,3S,5S,1′S,3′S,5′S)-N,N′-(1,3-oxazole-2,5-diyldi-4,1-phenylene)bis(2-((3-chloro-5-methoxy-1-isoquinolinyl)carbonyl)-2-azabicyclo[3.1.0]hexane-3-carboxamide)] | 100 to 999 nM |
| C[C@H](NC(=O)c1cccc(F)n1)C(=O)Nc1ccc(-c2nnc(-c3ccc(NC(=O)[C@H](C)NC(=O)c4cccc(F)n4)cc3)o2)cc1 [RK-29, N,N′-(1,3,4-oxadiazole-2,5-diylbis(4,1-phenyleneimino((2S)-1-oxo-1,2-propanediyl)))bis(6-fluoro-2-pyridinecarboxamide)] | 1000 to 10000 nM |
| Cn1nc(-c2ccc(NC(=O)[C@@H]3CCCN3C(=O)C3CC3)cc2)cc1-c1ccc(NC(=O)[C@@H]2CCCN2C(=O)C2CC2)cc1 [FY-4, (2S,2′S)-N,N′-((1-methyl-1H-pyrazole-3,5-diyl)di-4,1-phenylene)bis(1-(cyclopropylcarbonyl)-2-pyrrolidinecarboxamide)] | 1000 to 10000 nM |
| CO[C@H](C(=O)N1CCC[C@H]1C(=O)Nc1ccc(-c2cc(-c3ccc(NC(=O)[C@@H]4CCCN4C(=O)[C@@H](OC)c4ccccc4)cc3)[nH]n2)cc1)c1ccccc1 [JG-38, (2S,2′S)-N,N′-(1H-pyrazole-3,5-diyldi-4,1-phenylene)bis(1-((2S)-2-methoxy-2-phenylacetyl)-2-pyrrolidinecarboxamide)] | < 4.57 nM |
| O=C(Nc1ccc(-c2cnc(-c3ccc(NC(=O)[C@@H]4CCCN4C(=O)C4(Cc5ccccc5)CCCN4)cc3)o2)cc1)[C@@H]1CCCN1C(=O)C1(Cc2ccccc2)CCCN1 (stereo partly drawn) [Example D-37, (2S,2′S)-N,N′-(1,3-oxazole-2,5-diyldi-4,1-phenylene)bis(1-((2-benzyl-2-pyrrolidinyl)carbonyl)-2-pyrrolidinecarboxamide)] | 1000 to 10000 nM |

Same assay, conditions: Hepatitis C virus, HCV 1b genotype replicon; class symbols; read-out: EC50 Range against HCV 1b

| Compound | EC50 |
| --- | --- |
| Cn1cccc1C(=O)N1C[C@H](OC(C)(C)C)C[C@H]1C(=O)Nc1ccc(-c2cnc(-c3ccc(NC(=O)[C@@H]4C[C@@H](OC(C)(C)C)CN4C(=O)c4cccn4C)cc3)o2)cc1 [XY-71, (2S,4R,2′S,4′R)-N,N′-(1,3-oxazole-2,5-diyldi-4,1-phenylene)bis(4-tert-butoxy-1-((1-methyl-1H-pyrrol-2-yl)carbonyl)-2-pyrrolidinecarboxamide)] | 1000 to 10000 nM |
| O=C(Nc1ccc(-c2cnc(-c3ccc(NC(=O)[C@@H]4CCCN4C(=O)c4ccoc4)cc3)o2)cc1)[C@@H]1CCCN1C(=O)c1ccoc1 [XY-38, (2S,2′S)-N,N′-(1,3-oxazole-2,5-diyldi-4,1-phenylene)bis(1-(3-furoyl)-2-pyrrolidinecarboxamide)] | 4.57 to 99 nM |
| CC1CC1C(=O)N1CCC[C@H]1C(=O)Nc1ccc(-c2cnc(-c3ccc(NC(=O)[C@@H]4CCCN4C(=O)C4CC4C)cc3)o2)cc1 (stereo partly drawn) [XY-16, (2S,2′S)-N,N′-(1,3-oxazole-2,5-diyldi-4,1-phenylene)bis(1-((2-methylcyclopropyl)carbonyl)-2-pyrrolidinecarboxamide)] | 100 to 999 nM |
| COc1cccc(CC(=O)N2CCC[C@H]2C(=O)Nc2ccc(-c3cnc(-c4ccc(NC(=O)[C@@H]5CCCN5C(=O)Cc5cccc(OC)c5)cc4)o3)cc2)c1 [XY-3, (2S,2′S)-N,N′-(1,3-oxazole-2,5-diyldi-4,1-phenylene)bis(1-((3-methoxyphenyl)acetyl)-2-pyrrolidinecarboxamide)] | 100 to 999 nM |
| CC(C(=O)N1CCC[C@H]1C(=O)Nc1ccc(-c2cnc(-c3ccc(NC(=O)[C@@H]4CCCN4C(=O)C(C)N4C(=O)C5C6CCC(C6)C5C4=O)cc3)o2)cc1)N1C(=O)C2C3CCC(C3)C2C1=O (stereo partly drawn) [JR-18, (2S,2′S)-N,N′-(2,5-oxazolediyldi-4,1-phenylene)bis[1-[2-(octahydro-1,3-dioxo-4,7-methano-2H-isoindol-2-yl)-1-oxopropyl]-2-pyrrolidinecarboxamide]] | 1000 to 10000 nM |
| CC(C)(C)O[C@@H]1C[C@@H](C(=O)Nc2ccc(-c3cnc(-c4ccc(NC(=O)[C@@H]5C[C@@H](OC(C)(C)C)CN5C(=O)Cc5cccnc5)cc4)o3)cc2)N(C(=O)Cc2cccnc2)C1 [XY-62, (2S,4R,2′S,4′R)-N,N′-(1,3-oxazole-2,5-diyldi-4,1-phenylene)bis(4-tert-butoxy-1-(3-pyridinylacetyl)-2-pyrrolidinecarboxamide)] | 4.57 to 99 nM |
| CC[C@@H](C(=O)N1CCC[C@H]1C(=O)Nc1ccc(-c2cnc(-c3ccc(NC(=O)[C@@H]4CCCN4C(=O)[C@H](CC)c4ccccc4)cc3)o2)cc1)c1ccccc1 [XY-20, (2S,2′S)-N,N′-(1,3-oxazole-2,5-diyldi-4,1-phenylene)bis(1-((2R)-2-phenylbutanoyl)-2-pyrrolidinecarboxamide)] | 4.57 to 99 nM |
| CC(C)(C)O[C@@H]1C[C@@H](C(=O)Nc2ccc(-c3cnc(-c4ccc(NC(=O)[C@@H]5C[C@@H](OC(C)(C)C)CN5C(=O)C5CCCCC5)cc4)o3)cc2)N(C(=O)C2CCCCC2)C1 [XY-66, (2S,4R,2′S,4′R)-N,N′-(1,3-oxazole-2,5-diyldi-4,1-phenylene)bis(4-tert-butoxy-1-(cyclohexylcarbonyl)-2-pyrrolidinecarboxamide)] | 1000 to 10000 nM |

Same assay, conditions: Hepatitis C virus, HCV 1b genotype replicon; read-out: EC50 1b

| Compound | EC50 |
| --- | --- |
| O=C(Nc1ccc(-c2cnc(-c3ccc(NC(=O)[C@@H]4C[C@@H](O)CN4C(=O)Cc4ccccc4)cc3)o2)cc1)[C@@H]1C[C@@H](O)CN1C(=O)Cc1ccccc1 [JG-2, (2S,4R,2′S,4′R)-N,N′-(1,3-oxazole-2,5-diyldi-4,1-phenylene)bis(4-hydroxy-1-(phenylacetyl)-2-pyrrolidinecarboxamide)] | 2 nM |
| COc1cccc(CC(=O)N2CCC[C@H]2C(=O)Nc2ccc(-c3cnc(-c4ccc(NC(=O)[C@@H]5CCCN5C(=O)Cc5cccc(OC)c5)cc4)o3)cc2)c1 [XY-3, (2S,2′S)-N,N′-(1,3-oxazole-2,5-diyldi-4,1-phenylene)bis(1-((3-methoxyphenyl)acetyl)-2-pyrrolidinecarboxamide)] | 321 nM |
| CC[C@@H](C(=O)N1CCC[C@H]1C(=O)Nc1ccc(-c2cnc(-c3ccc(NC(=O)[C@@H]4CCCN4C(=O)[C@H](CC)c4ccccc4)cc3)o2)cc1)c1ccccc1 [XY-20, (2S,2′S)-N,N′-(1,3-oxazole-2,5-diyldi-4,1-phenylene)bis(1-((2R)-2-phenylbutanoyl)-2-pyrrolidinecarboxamide)] | 62 nM |
